# Reference: US6103761A, “Agents acting at cholecystokinin receptors” (Warner-Lambert Company, priority 1994, dated 2000)
# Target: T1, CCK-B receptor (Mus musculus, UniProt P56481)
# T1 construct: from tissue; host or cells: cerebral cortex membranes of male CFLP mice
# T1 sequence (P56481 1-453): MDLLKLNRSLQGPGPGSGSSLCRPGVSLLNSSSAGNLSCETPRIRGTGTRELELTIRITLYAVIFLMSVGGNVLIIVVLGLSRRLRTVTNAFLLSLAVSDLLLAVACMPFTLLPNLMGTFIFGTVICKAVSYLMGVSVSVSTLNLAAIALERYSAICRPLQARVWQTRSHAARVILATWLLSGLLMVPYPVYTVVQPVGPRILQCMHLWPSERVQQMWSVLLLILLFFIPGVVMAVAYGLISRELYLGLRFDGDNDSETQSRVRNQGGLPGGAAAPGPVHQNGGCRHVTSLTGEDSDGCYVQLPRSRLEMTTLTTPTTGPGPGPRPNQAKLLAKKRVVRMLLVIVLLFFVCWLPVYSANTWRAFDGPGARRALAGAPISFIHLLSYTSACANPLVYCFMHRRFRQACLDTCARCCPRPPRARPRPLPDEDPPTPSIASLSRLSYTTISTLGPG
# Test: Displacement of tritiated-pentagastrin binding to mouse cerebral cortical membranes (CCK receptor binding)
# Parameters: species or system male CFLP mice
# Details: displacement of 2 nM tritiated-pentagastrin, Ki by Cheng-Prusoff equation, read-out: Ki, Binding Affinity CCK-B
# Procedure: The biological activity of compounds of the present invention was evaluated employing an initial screening test which rapidly and accurately measured the binding of the tested compound to known CCK receptor sites. […] (See Hays, et al., Neuropeptides 1980;1:53-62; and Satuer, et al., Science 1980;208:1155-6.)
# In this screening test, the cerebral cortices taken from male CFLP mice weighing between 30-40 g were dissected on ice, weighed, and homogenized in 10 volumes of 50 mM Tris-HCl buffer (pH 7.4 at 0-4° C.). The resulting suspension was centrifuged, the supernate was discarded, and the pellet was washed by resuspension in Tris-HCl buffer followed by recentrifugation. The final pellet was resuspended in 20 volumes of […] buffer (pH 7.2 at 23° C.) containing 130 mM NaCl, […], […], […], 5 mg/mL bovine albumin, and bacitracin (0.25 mg/mL).
# In saturation studies, cerebral cortical membranes were incubated at 23° C. for 120 minutes in a final volume of 500 μL of Hepes incubation buffer (pH 7.2) together with 0.2-20 nM tritiated-pentagastrin (Amersham International, England).
# In the displacement experiments, membranes were incubated with a single concentration (2 nM) of ligand, together with increasing concentrations ([…]) of competitive test compound. In each case, the nonspecific binding was defined as that persisting in the presence of the unlabeled octapeptide CCK26-33 (10^-6 M).
# Following incubation, radioactivity bound to membranes was separated from that free in solution by rapid filtration through Whatman GF/B filters and washed three times with 4 mL of ice cold Tris-HCl buffer. Filters from samples incubated with tritiated-pentagastrin were placed in polyethylene vials with 4 mL of scintillation cocktail, and the radioactivity was estimated by liquid scintillation spectrometry (efficiency 47%-52%).
# The specific binding to CCK receptor sites was defined as the total bound tritiated-pentagastrin minus the amount of tritiated-pentagastrin bound in the presence of 10^-6 octapeptide, CCK26-33.
# Saturation curves for specific tritiated-pentagastrin binding to mouse cortical membranes were analyzed by the methods of Scatchard (Ann New York Acad Sci 1949;51:660-72, and Hill, J Physiol 1910;40:IV-VIII), to provide estimates for the maximum number of binding sites (Bmax) and the equilibrium dissociation constant ([…]).
# In displacement experiments, inhibition curves were analyzed by either logit-log plots or the iterative curve fitting computer program ALLFIT (DeLean, Munson, Redbard, 1978) to provide estimates of the IC50 and nH (apparent Hill coefficient) values). (IC50 values were defined as the concentration of test compound required to produce 50% inhibition of specific binding.)
# The inhibition constant (Ki) of the test compound was then calculated according to the Cheng-Prusoff equation: [formula] where [L] is the concentration of radiolabel and Ka is the equilibrium dissociation constant.
row,Structure (SMILES),Ki [µM]
1,"O=C(Nc1ccc(Cl)cc1)N[C@H](c1ccccc1)[C@H](NC(=O)Nc1ccc(C(F)(F)F)cc1)c1ccccc1 (relative stereo) [Example 10, [R-(R*,R*)] and [S-(R*,R*)]-N-(4-chlorophenyl)-N'-[1,2-diphenyl-2-[[[[4-(trifluoromethyl)phenyl]amino]-carbonyl]amino]ethyl]-urea]",0.371
2,"Cc1ccc(S(=O)(=O)NC(=O)N[C@H](c2ccccc2)[C@H](NC(=O)Nc2ccc(C(F)(F)F)cc2)c2ccccc2)cc1 (relative stereo) [Example 14, [S-(R*,R*)] and [R-(R*,R*)]-N-[[[1,2-diphenyl-2-[[[[4-(trifluoromethyl)phenyl]amino]carbonyl]amino]-ethyl]amino]carbonyl]-4-methyl-benzenesulfonamide]",0.188
3,"O=C(Nc1ccc([N+](=O)[O-])cc1)N[C@H](c1ccccc1)[C@H](NC(=O)Nc1ccc(C(F)(F)F)cc1)c1ccccc1 (relative stereo) [Example 15, [S-(R*,R*)] and [R-(R*,R*)]-N-[1,2-diphenyl-2-[[[[4-(trifluoromethyl)phenyl]amino]carbonyl]amino]-ethyl]-N'-(4-nitrophenyl)urea]",0.309
4,"Cc1ccc(S(=O)(=O)NC(=O)N[C@H](c2ccccc2)[C@H](NC(=O)Nc2ccc(Cl)cc2)c2ccccc2)cc1 (relative stereo) [Example 46, [R-(R*,R*)] and [S-(R*,R*)]-N-[[[2-[[[(4-chlorophenyl)-amino]carbonyl]amino]-1,2-diphenylethyl]amino]-carbonyl]-4-methyl-benzenesulfonamide]",0.188
5,"O=C(Nc1ccc(Cl)cc1)N[C@H](c1ccccc1)[C@H](NC(=O)NS(=O)(=O)c1ccccc1)c1ccccc1 (relative stereo) [Example 47, [R-(R*,R*)] and [S-(R*,R*)]-N-[[[2-[[[4-chlorophenyl)-amino]carbonyl]amino]-1,2-diphenylethyl]amino]-carbonyl]benzenesulfonamide]",0.29
6,"Cc1ccc(NC(=O)N[C@H](c2ccccc2)[C@H](NC(=O)NS(=O)(=O)c2ccc(C)cc2)c2ccccc2)cc1 (relative stereo) [Example 54, [R-(R*,R*)] and [S-(R*,R*)]-4-methyl-N-[[[2-[[[(4-methylphenyl)amino]carbonyl]amino]-1,2-diphenylethyl]amino]carbonyl]benzenesulfonamide]",0.178
7,"Cc1ccc(S(=O)(=O)NC(=O)N[C@@H](c2ccccc2)[C@@H](NC(=O)Nc2ccc(Cl)cc2)c2ccccc2)cc1 [Example 64, (+)-[S-(R*,R*)]-N-[[[2-[[[(4-chlorophenyl)amino]-carbonyl]amino]-1,2-diphenylethyl]amino]carbonyl]-4-methyl-urea]",0.093
8,"O=C(Nc1ccc(Cl)cc1)N[C@@H](c1ccccc1)[C@@H](NC(=O)Nc1ccc(C(F)(F)F)cc1)c1ccccc1 [Example 65, (+)-[S-(R*,R*)]-N-(4-chlorophenyl)-N'-[1,2-diphenyl]-2-[[[[4-(trifluoromethyl)phenyl]amino]carbonyl]amino]-ethyl]urea]",0.293
